Species on record: Rattus norvegicus
Test: DrugMatrix - Regimen: Daily Repeat
Type: toxicity, organism-based, Sprague-Dawley
Parameters: regimen Daily Repeat, gender Male, age 6-8 weeks
Settings: in vivo, po, 80 mg/kg, route oral GAVAGE, dose level Low, vehicle .5 % CMC; for ABSOLUTE BASOPHIL / ABSOLUTE EOSINOPHIL / ABSOLUTE LYMPHOCYTE / ABSOLUTE MONOCYTE / ABSOLUTE SEGMENTED NEUTROPHIL / BASOPHIL / EOSINOPHIL / ERYTHROCYTE COUNT / HEMATOCRIT / HEMOGLOBIN / LEUKOCYTE COUNT / LYMPHOCYTE / MEAN CORPUSCULAR HEMOGLOBIN / MEAN CORPUSCULAR HEMOGLOBIN CONCENTRATION / MEAN CORPUSCULAR VOLUME / MONOCYTE / NEUTROPHIL / NUCLEATED RED BLOOD CELLS / PLATELET COUNT: tissue Blood; for ALANINE AMINOTRANSFERASE / ALBUMIN / ALKALINE PHOSPHATASE / ASPARTATE AMINOTRANSFERASE / BLOOD UREA NITROGEN / CARBON DIOXIDE / CHLORIDE / CHOLESTEROL / CREATINE PHOSPHOKINASE / CREATININE / GLUCOSE / LACTATE DEHYDROGENASE / LIPASE / PHOSPHORUS / POTASSIUM / SODIUM / TOTAL BILIRUBIN / TOTAL PROTEIN / URIC ACID: tissue Plasma

O=c1cnn([C@@H]2O[C@H](CO)[C@@H](O)[C@H]2O)c(=O)[nH]1 [6-AZAURIDINE]
ABSOLUTE BASOPHIL (72 h, time 3 day): 0 CELLS/uL
ABSOLUTE EOSINOPHIL (72 h, time 3 day): 0 CELLS/uL
ABSOLUTE LYMPHOCYTE (72 h, time 3 day): 15386 CELLS/uL
ABSOLUTE MONOCYTE (72 h, time 3 day): 95.33 CELLS/uL
ABSOLUTE SEGMENTED NEUTROPHIL (72 h, time 3 day): 852 CELLS/uL
BASOPHIL (72 h, time 3 day): 0%
EOSINOPHIL (72 h, time 3 day): 0%
ERYTHROCYTE COUNT (72 h, time 3 day): 5.24 x10E6/uL
HEMATOCRIT (72 h, time 3 day): 34.9%
HEMOGLOBIN (72 h, time 3 day): 13.33 G/DL
LEUKOCYTE COUNT (72 h, time 3 day): 16.33 x10E3/uL
LYMPHOCYTE (72 h, time 3 day): 94%
MEAN CORPUSCULAR HEMOGLOBIN (72 h, time 3 day): 25.47 pg
MEAN CORPUSCULAR HEMOGLOBIN CONCENTRATION (72 h, time 3 day): 38.2 G/DL
MEAN CORPUSCULAR VOLUME (72 h, time 3 day): 66.6 fL
MONOCYTE (72 h, time 3 day): 0.67%
NEUTROPHIL (72 h, time 3 day): 5.33%
NUCLEATED RED BLOOD CELLS (72 h, time 3 day): 0.33 /100WBC
PLATELET COUNT (72 h, time 3 day): 1177.67 x10E3/uL
ALANINE AMINOTRANSFERASE (72 h, time 3 day): 32.67 u/L
ALBUMIN (72 h, time 3 day): 4.23 G/DL
ALKALINE PHOSPHATASE (72 h, time 3 day): 410.67 u/L
ASPARTATE AMINOTRANSFERASE (72 h, time 3 day): 74.33 u/L
BLOOD UREA NITROGEN (72 h, time 3 day): 15.33 mg/dL
CARBON DIOXIDE (72 h, time 3 day): 25 mmol/L
CHLORIDE (72 h, time 3 day): 106.67 MEQ/L
CHOLESTEROL (72 h, time 3 day): 73.67 mg/dL
CREATINE PHOSPHOKINASE (72 h, time 3 day): 134.33 u/L
CREATININE (72 h, time 3 day): 0.2 mg/dL
GLUCOSE (72 h, time 3 day): 173.33 mg/dL
LACTATE DEHYDROGENASE (72 h, time 3 day): 86.67 u/L
LIPASE (72 h, time 3 day): 10.33 u/L
PHOSPHORUS (72 h, time 3 day): 12.67 mg/dL
POTASSIUM (72 h, time 3 day): 6.8 MEQ/L
SODIUM (72 h, time 3 day): 148.73 MEQ/L
TOTAL BILIRUBIN (72 h, time 3 day): 0.2 mg/dL
TOTAL PROTEIN (72 h, time 3 day): 5.93 G/DL
URIC ACID (72 h, time 3 day): 1.7 mg/dL
ABSOLUTE BASOPHIL (120 h, time 5 day): 0 CELLS/uL
ABSOLUTE EOSINOPHIL (120 h, time 5 day): 0 CELLS/uL
ABSOLUTE LYMPHOCYTE (120 h, time 5 day): 12013.67 CELLS/uL
ABSOLUTE MONOCYTE (120 h, time 5 day): 153.67 CELLS/uL
ABSOLUTE SEGMENTED NEUTROPHIL (120 h, time 5 day): 1099.33 CELLS/uL
BASOPHIL (120 h, time 5 day): 0%
EOSINOPHIL (120 h, time 5 day): 0%
ERYTHROCYTE COUNT (120 h, time 5 day): 5.94 x10E6/uL
HEMATOCRIT (120 h, time 5 day): 37.2%
HEMOGLOBIN (120 h, time 5 day): 13.73 G/DL
LEUKOCYTE COUNT (120 h, time 5 day): 13.27 x10E3/uL
LYMPHOCYTE (120 h, time 5 day): 90.67%
MEAN CORPUSCULAR HEMOGLOBIN (120 h, time 5 day): 23.2 pg
MEAN CORPUSCULAR HEMOGLOBIN CONCENTRATION (120 h, time 5 day): 36.93 G/DL
MEAN CORPUSCULAR VOLUME (120 h, time 5 day): 62.77 fL
MONOCYTE (120 h, time 5 day): 1.33%
NEUTROPHIL (120 h, time 5 day): 8%
NUCLEATED RED BLOOD CELLS (120 h, time 5 day): 0.33 /100WBC
PLATELET COUNT (120 h, time 5 day): 1474.67 x10E3/uL
ALANINE AMINOTRANSFERASE (120 h, time 5 day): 38 u/L
ALBUMIN (120 h, time 5 day): 4.23 G/DL
ALKALINE PHOSPHATASE (120 h, time 5 day): 363.67 u/L
ASPARTATE AMINOTRANSFERASE (120 h, time 5 day): 88.33 u/L
BLOOD UREA NITROGEN (120 h, time 5 day): 20.33 mg/dL
CARBON DIOXIDE (120 h, time 5 day): 22 mmol/L
CHLORIDE (120 h, time 5 day): 104.33 MEQ/L
CHOLESTEROL (120 h, time 5 day): 68 mg/dL
CREATINE PHOSPHOKINASE (120 h, time 5 day): 230.33 u/L
CREATININE (120 h, time 5 day): 0.22 mg/dL
GLUCOSE (120 h, time 5 day): 166.67 mg/dL
LACTATE DEHYDROGENASE (120 h, time 5 day): 119.33 u/L
LIPASE (120 h, time 5 day): 10.33 u/L
PHOSPHORUS (120 h, time 5 day): 13.2 mg/dL
POTASSIUM (120 h, time 5 day): 6.55 MEQ/L
SODIUM (120 h, time 5 day): 146.7 MEQ/L
TOTAL BILIRUBIN (120 h, time 5 day): 0.13 mg/dL
TOTAL PROTEIN (120 h, time 5 day): 6.17 G/DL
URIC ACID (120 h, time 5 day): 2.23 mg/dL
